The term Ki denotes the dissociation constant of the complex between target and ligand, obtained from inhibition or displacement.

Where two headings read alike, the source gives them in different places.

The target of this assay is ENPP-1 ECD (Homo sapiens (Human), UniProt P22413). Nature of the assay: Inhibition of ENPP1 hydrolysis of 2′,3′-cGAMP (Assay 1). The note with it: AMP-Glo luminescence, KI from IC50 via Cheng/Prusoff.
The mark [1] stands for this setting: read-out: Assay 1 KI values (class), 2,3-cGAMP 24 μM.
[2] abbreviates: read-out: Assay 1 KI, 2,3-cGAMP 24 μM.
Setting [3] is: Assay 1 KI values (class), 2,3-cGAMP 24 μM.

Sequence of ENPP-1 ECD (P22413 98-925): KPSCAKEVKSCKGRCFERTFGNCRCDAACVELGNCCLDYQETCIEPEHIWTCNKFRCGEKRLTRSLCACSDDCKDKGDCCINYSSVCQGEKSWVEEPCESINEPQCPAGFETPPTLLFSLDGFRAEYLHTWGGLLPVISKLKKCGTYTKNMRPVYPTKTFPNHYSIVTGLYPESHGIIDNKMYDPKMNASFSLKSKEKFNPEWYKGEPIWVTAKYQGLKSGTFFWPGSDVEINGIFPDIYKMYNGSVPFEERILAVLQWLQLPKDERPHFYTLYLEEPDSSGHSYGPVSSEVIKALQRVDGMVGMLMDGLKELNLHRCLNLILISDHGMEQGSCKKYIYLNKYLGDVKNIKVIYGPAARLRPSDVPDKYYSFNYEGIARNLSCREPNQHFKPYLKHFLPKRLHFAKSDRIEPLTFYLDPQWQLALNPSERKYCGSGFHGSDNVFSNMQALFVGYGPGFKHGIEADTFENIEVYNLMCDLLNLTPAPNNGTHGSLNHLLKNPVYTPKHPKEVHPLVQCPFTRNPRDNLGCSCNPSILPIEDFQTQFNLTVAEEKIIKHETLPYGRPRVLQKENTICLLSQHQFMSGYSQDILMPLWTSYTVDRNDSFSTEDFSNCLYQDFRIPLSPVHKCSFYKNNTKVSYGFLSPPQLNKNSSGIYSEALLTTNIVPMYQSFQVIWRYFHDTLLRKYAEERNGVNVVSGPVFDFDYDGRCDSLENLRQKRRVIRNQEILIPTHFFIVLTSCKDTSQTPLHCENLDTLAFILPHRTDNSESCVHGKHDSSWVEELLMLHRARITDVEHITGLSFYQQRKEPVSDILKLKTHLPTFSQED
Description: Test compounds were plated in a 3× dilution scheme in a 384 well plate.

As for “3-[(4-{[7-(dimethylamino)-5-methyl-[1,2,4]triazolo[1,5-a]pyrimidin-6-yl]methyl}phenyl)(imino)oxo-λ^6-sulfanyl]propaneitrile [Compound 61]”, the inhibition constant (Ki) reads like this: under setting [1], below 3 nM; under setting [2], 0.375 nM.
On the same counts, the results for `Cc1nc2ncnn2c(N(C)C)c1Cc1ccc([S@](C)(=N)=O)cc1` (single isomer, unassigned) [Compound 1a] are 3 to 300 nM and 13.4 nM.
The matching figures for `Cc1nc2ncnn2c(N2CCCC2)c1Cc1ccc([S@@](C)(=N)=O)cc1` (single isomer, unassigned) [Compound 8b]: 3 to 300 nM and 13.4 nM.
On the same counts, the results for `Cc1cc2ncnn2c(N(C)C)c1Cc1ccc([S@@](C)(=N)=O)cc1` (single isomer, unassigned) [Compound 28b] are 3 to 300 nM and 10 nM.
In the case of `Cc1nc2ncnn2c(N(C)C)c1Cc1ccc([S@](C)(=N)=O)cc1` (single isomer, unassigned) [Compound 49b], the Ki reads like this: under setting [1], below 3 nM; under setting [2], 0.356 nM.
Consider `Cc1c(Cc2ccc([S@](C)(=N)=O)cc2)c(N(C)C)n2ncnc2c1C#N` (single isomer, unassigned) [Compound 85b], for which, under setting [2], the Ki is 11.1 nM.
Take `Cc1nc2ncnn2c(N(C)C)c1Cc1cccc(NS(N)(=O)=O)c1` [Compound 3, N-(3-{[7-(dimethylamino)-5-methyl-[1,2,4]triazolo[1,5-a]pyrimidin-6-yl]methyl}phenyl)aminosulfonamide]: the Ki by setting is: under setting [3], 3 to 300 nM; (Assay 1 KI, 2,3-cGAMP 24 μM) 222 nM.
In the case of `Cc1nc2ncnn2c(N(C)C)c1Cc1cccc(S(C)(=N)=O)c1` (stereo not shown) [Compound 4, (3-((7-(dimethylamino)-5-methyl-[1,2,4]triazolo[1,5-a]pyrimidin-6-yl)methyl)phenyl)(imino)(methyl)-λ^6-sulfanone], the Ki is, setting by setting: under setting [3], above 300 nM; under setting [2], 537 nM.
On the same counts, the results for `Cc1nc2ncnn2c(N(C)C)c1CC1CCN(S(N)(=O)=O)CC1` [Compound 15, 4-{[7-(dimethylamino)-5-methyl-[1,2,4]triazolo[1,5-a]pyrimidin-6-yl]methyl}piperidine-1-sulfonamide] are 3 to 300 nM and 495 nM.
For `Cc1nc2ncnn2c(N2CCCCC2)c1Cc1ccc([S@@](C)(=N)=O)cc1` [Compound 16b], the Ki was 3 to 300 nM under setting [1] and 3.17 nM under setting [2].
On to `Cc1nc2ncnn2c(-n2cccn2)c1Cc1ccc(S(C)(=N)=O)cc1` (stereo not shown) [Compound 18, imino(methyl)(4-((5-methyl-7-(1H-pyrazol-1-yl)-[1,2,4]triazolo[1,5-a]pyrimidin-6-yl)methyl)phenyl)-λ^6-sulfanone], for which the Ki is, setting by setting: under setting [3], 3 to 300 nM; under setting [2], 6.99 nM.
In the case of `Cc1nc2ncnn2c(C)c1Cc1ccc(S(C)(=N)=O)cc1` (stereo not shown) [Compound 26, [4-({5,7-dimethyl-[1,2,4]triazolo[1,5-a]pyrimidin-6-yl}methyl)phenyl](imino)methyl-λ6-sulfanone], the Ki reads like this: under setting [3], 3 to 300 nM; under setting [2], 13.6 nM.
For the molecule `Cc1nc2nccn2c(N(C)C)c1Cc1ccc([S@@](C)(=N)=O)cc1` [Compound 29b], the Ki under setting [1] lay within 3 to 300 nM and the inhibitory constant (Ki) under setting [2] amounted to 42.2 nM.
In the case of `CCN(CC)c1c(Cc2ccc(S(C)(=N)=O)cc2)c(C)nc2ncnn12` (stereo not shown) [Compound 38], the Ki runs as follows: under setting [3], 3 to 300 nM; under setting [2], 37.9 nM.
With `Cc1nc2ncnn2c(N(C)C2CC2)c1Cc1ccc(S(C)(=N)=O)cc1` (stereo not shown) [Compound 39, [4-({7-[cyclopropyl(methyl)amino]-5-methyl-[1,2,4]triazolo[1,5-a]pyrimidin-6-yl}methyl)phenyl](imino)methyl-λ^6-sulfanone], the Ki under setting [3] was 3 to 300 nM.
`Cc1nc2ncnn2c(N(C)C2CCC2)c1Cc1ccc(S(C)(=N)=O)cc1` (stereo not shown) [Compound 40]: the inhibition constant Ki reads like this: under setting [3], 3 to 300 nM; under setting [2], 27 nM.
With `Cc1nc2ncnn2c(N2CC(F)(F)C2)c1Cc1ccc(S(C)(=N)=O)cc1` (stereo not shown) [Compound 41], the Ki is 3 to 300 nM under setting [3] and 10.8 nM under setting [2].
As to `Cc1nc2ncnn2c(N2CC(C)(C)C2)c1Cc1ccc(S(C)(=N)=O)cc1` (stereo not shown) [Compound 42, (4-{[7-(3,3-dimethylazetidin-1-yl)-5-methyl-[1,2,4]triazolo[1,5-a]pyrimidin-6-yl]methyl}phenyl)(imino)methyl-λ^6-sulfanone], the Ki under setting [3] was in the range of 3 to 300 nM.
Same read-out and setting: the same measure for `Cc1nc2ncnn2c(N2CCC(F)(F)CC2)c1Cc1ccc(S(C)(=N)=O)cc1` (stereo not shown) [Compound 43, (4-{[7-(4,4-difluoropiperidin-1-yl)-5-methyl-[1,2,4]triazolo[1,5-a]pyrimidin-6-yl]methyl}phenyl)(imino)methyl-λ^6-sulfanone]: 3 to 300 nM; for `Cc1nc2ncnn2c(N2C3CCC2CC3)c1Cc1ccc(S(C)(=N)=O)cc1` (stereo not shown) [Compound 44, {4-[(7-{7-azabicyclo[2.2.1]heptan-7-yl}-5-methyl-[1,2,4]triazolo[1,5-a]pyrimidin-6-yl)methyl]phenyl}(imino)methyl-λ^6-sulfanone]: 3 to 300 nM.
For the molecule `Cc1nc2ncnn2c(N2CC3CC2C3)c1Cc1ccc(S(C)(=N)=O)cc1` (stereo not shown) [Compound 45, {4-[(7-{2-azabicyclo[2.1.1]heptan-2-yl}-5-methyl-[1,2,4]triazolo[1,5-a]pyrimidin-6-yl)methyl]phenyl}(imino)methyl-λ^6-sulfanone], the Ki under setting [3] was 3 to 300 nM and the Ki under setting [2] was determined as 9.83 nM.
`Cc1nc2ncnn2c(N2CC3CC(C3)C2)c1Cc1ccc(S(C)(=N)=O)cc1` (stereo not shown) [Compound 46, {4-[(7-{3-azabicyclo[3.1.1]heptan-3-yl}-5-methyl-[1,2,4]triazolo[1,5-a]pyrimidin-6-yl)methyl]phenyl}(imino)methyl-λ^6-sulfanone] gave a Ki under setting [3] of 3 to 300 nM.
Consider `Cc1nc2ncnn2c(N2C3CCCC2CC3)c1Cc1ccc(S(C)(=N)=O)cc1` (stereo not shown) [Compound 47], for which the Ki is, setting by setting: under setting [3], 3 to 300 nM; under setting [2], 50.9 nM.
With `Cc1nc2ncnn2c(N2CC3CC3C2)c1Cc1ccc(S(C)(=N)=O)cc1` (stereo not shown) [Compound 48, {4-[(7-{3-azabicyclo[3.1.0]heptan-3-yl}-5-methyl-[1,2,4]triazolo[1,5-a]pyrimidin-6-yl)methyl]phenyl}(imino)methyl-λ^6-sulfanone], the Ki under setting [3] is below 3 nM and the Ki under setting [2] came out at 2.65 nM.
On the same counts, the results for `CN(C)c1c(Cc2ccc(S(C)(=N)=O)cc2)c(C(F)(F)F)nc2ncnn12` (stereo not shown) [Compound 51] are 3 to 300 nM and 5.56 nM.
The matching figures for `CS(=N)(=O)c1ccc(Cc2c(C(F)(F)F)nc3ncnn3c2N2CCCCC2)cc1` (stereo not shown) [Compound 52]: 3 to 300 nM and 4.85 nM.
The matching figures for `Cc1nc2ncnn2c(N(C)C)c1Cc1ccc(S(=N)(=O)C2COC2)cc1` (stereo not shown) [Compound 62, [(4-{[7-(dimethylamino)-5-methyl-[1,2,4]triazolo[1,5-a]pyrimidin-6-yl]methyl}phenyl)(oxetan-3-yl)imino-λ^6-sulfanyl]one]: below 3 nM and 0.19 nM.
As for `Cc1nc2ncnn2c(N(C)C)c1Cc1ccc(S(=N)(=O)C2CC2)cc1` (stereo not shown) [Compound 63, [cyclopropyl(4-{[7-(dimethylamino)-5-methyl-[1,2,4]triazolo[1,5-a]pyrimidin-6-yl]methyl}phenyl)imino-λ^6-sulfanyl]one], the Ki is below 3 nM under setting [3] and 0.0363 nM under setting [2].
On the same counts, the results for `Cc1nc2ncnn2c(N(C)C)c1Cc1cccc(S(N)(=O)=O)c1` [Compound 65, 3-{[7-(dimethylamino)-5-methyl-[1,2,4]triazolo[1,5-a]pyrimidin-6-yl]methyl}benzene-1-sulfonamide] are 3 to 300 nM and 181 nM.
The matching figures for `CS(=N)(=O)Cc1ccc(-c2cnc3ncnn3c2)cc1` (stereo not shown) [Compound 66, imino(methyl)[(4-{[1,2,4]triazolo[1,5-a]pyrimidin-6-yl}phenyl)methyl]-λ^6-sulfanone]: above 300 nM and above 1500 nM.
`Cc1nc2ncnn2c(N(C)C)c1-c1ccc(CCS(C)(=N)=O)cc1` (stereo not shown) [Compound 68, (2-{4-[7-(dimethylamino)-5-methyl-[1,2,4]triazolo[1,5-a]pyrimidin-6-yl]phenyl}ethyl)(imino)methyl-λ^6-sulfanone] showed a Ki under setting [3] of 3 to 300 nM.
Turning to `Cc1nc2ncnn2c(N(C)C)c1-c1ccc2c(c1)CN(S(N)(=O)=O)CC2` [Compound 69, 7-[7-(dimethylamino)-5-methyl-[1,2,4]triazolo[1,5-a]pyrimidin-6-yl]-1,2,3,4-tetrahydroisoquinoline-2-sulfonamide], the inhibition constant Ki under setting [3] is 3 to 300 nM and the inhibitory constant (Ki) under setting [2] was found to be 122 nM.
The matching figures for `Cc1nc2ncnn2cc1Cc1ccc(S(C)(=N)=O)cc1` (stereo not shown) [Compound 70, imino(methyl)[4-({5-methyl-[1,2,4]triazolo[1,5-a]pyrimidin-6-yl}methyl)phenyl]-λ6-sulfanone]: 3 to 300 nM and 179 nM.
As to `Cc1nc2ncnn2c(C2CC2)c1Cc1ccc(S(C)(=N)=O)cc1` (stereo not shown) [Compound 71, [4-({7-cyclopropyl-5-methyl-[1,2,4]triazolo[1,5-a]pyrimidin-6-yl}methyl)phenyl](imino)methyl-λ6-sulfanone], the Ki under setting [3] lay in the range of 3 to 300 nM.
Turning to `Cc1nc2ncnn2c(N(C)C)c1Cc1ccc([S@](=N)(=O)CCC(=O)O)cc1` [Compound 72b], the Ki under setting [2] is 0.982 nM.
With `CN(C)c1c(Cc2ccc([S@](C)(=N)=O)cc2)c(Cl)nc2ncnn12` [Compound 74b], the Ki was 3 to 300 nM under setting [1] and 9.97 nM under setting [2].
On the same counts, the results for `Cc1c(Cc2ccc([S@](C)(=N)=O)cc2)c(N(C)C)n2ccnc2c1C#N` [Compound 80b] are 3 to 300 nM and 43 nM.
With `Cc1nc2nccn2c(N2CCCCC2)c1Cc1ccc(S(C)(=N)=O)cc1` (stereo not shown) [Compound 83, Imino(methyl)(4-{[7-methyl-5-(piperidin-1-yl)imidazo[1,2-a]pyrimidin-6-yl]methyl}phenyl)-λ^6-sulfanone], the Ki is, setting by setting: under setting [3], below 3 nM; under setting [2], 0.0978 nM.

Source of the values: US20240376113A1 (Volastra Therapeutics, Inc., priority 2020, published 2024).
